Assay [1] deals with WI-38. The experiment in a line: Cytotoxicity against human WI-38 cells assessed as reduction in cell viability by SRB assay. It counts as cell-based.
Assay [2] relates to HCT-116. Briefly: Cytotoxicity against human HCT-116 cells assessed as reduction in cell viability by SRB assay. It counts as functional, cell-based. (In general: The SRB assay estimates cell density from bound dye.)
The subject of assay [3] is HepG2. Briefly: Cytotoxicity against human HepG2 cells assessed as reduction in cell viability by SRB assay. It counts as functional, cell-based.
In assay [4] the test system is MCF7. The experiment in a line: cells. As to conditions: Homo sapiens.
Description: Cytotoxicity against human MCF7 cells assessed as reduction in cell viability by SRB assay
Assay [5] concerns the target Epidermal growth factor receptor (Homo sapiens, UniProt P00533). Briefly: Inhibition of EGFR (unknown origin) by FRET assay.
Assay [6] relates to HepG2. Briefly: Induction of cell cycle arrest in human HepG2 cells assessed as preG1 phase accumulation by flow cytometry analysis (reference value: 1.86 %). Format: functional. For orientation: A flow cytometer gives signals particle by particle.
Assay [7] deals with HepG2. The experiment in a line: Induction of apoptosis in human HepG2 cells assessed as Bax level (reference value: 27.35 pg/ml). Format: functional.
Assay [8] has as its system HepG2. The experiment in a line: Induction of cell cycle arrest in human HepG2 cells assessed as S phase accumulation by flow cytometry analysis (reference value: 36.22 %). It counts as functional.
The test system of assay [9] is HepG2. Briefly: Induction of apoptosis in human HepG2 cells assessed as necrotic cells at 5 uM incubated for 24 hrs by annexin V-FITC and PI staining based flow cytometry analysis (reference value: 0.43 %). It counts as functional.
The test system of assay [10] is HepG2. Briefly: Induction of cell cycle arrest in human HepG2 cells assessed as G2/M phase accumulation by flow cytometry analysis (reference value: 6.32 %). Format: functional.
Assay [11] deals with HepG2. Briefly: Induction of apoptosis in human HepG2 cells at 5 uM incubated for 24 hrs by annexin V-FITC and PI staining based flow cytometry analysis (reference value: 1.86 %). Format: functional.
Assay [12] deals with HepG2. The experiment in a line: Induction of apoptosis in human HepG2 cells assessed as Bcl2 level (reference value: 6.639 pg/ml). Format: functional.
In assay [13] the test system is HepG2. The experiment in a line: Induction of apoptosis in human HepG2 cells assessed as early apoptotic cells at 5 uM incubated for 24 hrs by annexin V-FITC and PI staining based flow cytometry analysis (reference value: 0.87 %). It counts as functional.
The subject of assay [14] is HepG2. The experiment in a line: Induction of apoptosis in human HepG2 cells assessed as late apoptotic cells at 5 uM incubated for 24 hrs by annexin V-FITC and PI staining based flow cytometry analysis (reference value: 0.56 %). It counts as functional.
Assay [15] relates to HepG2. The experiment in a line: Induction of cell cycle arrest in human HepG2 cells assessed as G0/G1 phase accumulation by flow cytometry analysis (reference value: 57.36 %). Format: functional.

From ChEMBL document CHEMBL4765304, “Synthesis and anticancer activity of thiourea derivatives bearing a benzodioxole moiety with EGFR inhibitory activity, apoptosis assay and molecular docking study” (Eur J Med Chem, 2020) come the findings set out here.

Broadly, the IC50 is the midpoint of a concentration-inhibition curve.

Structures are written as SMILES.

Chain of Epidermal growth factor receptor (P00533 whole entry): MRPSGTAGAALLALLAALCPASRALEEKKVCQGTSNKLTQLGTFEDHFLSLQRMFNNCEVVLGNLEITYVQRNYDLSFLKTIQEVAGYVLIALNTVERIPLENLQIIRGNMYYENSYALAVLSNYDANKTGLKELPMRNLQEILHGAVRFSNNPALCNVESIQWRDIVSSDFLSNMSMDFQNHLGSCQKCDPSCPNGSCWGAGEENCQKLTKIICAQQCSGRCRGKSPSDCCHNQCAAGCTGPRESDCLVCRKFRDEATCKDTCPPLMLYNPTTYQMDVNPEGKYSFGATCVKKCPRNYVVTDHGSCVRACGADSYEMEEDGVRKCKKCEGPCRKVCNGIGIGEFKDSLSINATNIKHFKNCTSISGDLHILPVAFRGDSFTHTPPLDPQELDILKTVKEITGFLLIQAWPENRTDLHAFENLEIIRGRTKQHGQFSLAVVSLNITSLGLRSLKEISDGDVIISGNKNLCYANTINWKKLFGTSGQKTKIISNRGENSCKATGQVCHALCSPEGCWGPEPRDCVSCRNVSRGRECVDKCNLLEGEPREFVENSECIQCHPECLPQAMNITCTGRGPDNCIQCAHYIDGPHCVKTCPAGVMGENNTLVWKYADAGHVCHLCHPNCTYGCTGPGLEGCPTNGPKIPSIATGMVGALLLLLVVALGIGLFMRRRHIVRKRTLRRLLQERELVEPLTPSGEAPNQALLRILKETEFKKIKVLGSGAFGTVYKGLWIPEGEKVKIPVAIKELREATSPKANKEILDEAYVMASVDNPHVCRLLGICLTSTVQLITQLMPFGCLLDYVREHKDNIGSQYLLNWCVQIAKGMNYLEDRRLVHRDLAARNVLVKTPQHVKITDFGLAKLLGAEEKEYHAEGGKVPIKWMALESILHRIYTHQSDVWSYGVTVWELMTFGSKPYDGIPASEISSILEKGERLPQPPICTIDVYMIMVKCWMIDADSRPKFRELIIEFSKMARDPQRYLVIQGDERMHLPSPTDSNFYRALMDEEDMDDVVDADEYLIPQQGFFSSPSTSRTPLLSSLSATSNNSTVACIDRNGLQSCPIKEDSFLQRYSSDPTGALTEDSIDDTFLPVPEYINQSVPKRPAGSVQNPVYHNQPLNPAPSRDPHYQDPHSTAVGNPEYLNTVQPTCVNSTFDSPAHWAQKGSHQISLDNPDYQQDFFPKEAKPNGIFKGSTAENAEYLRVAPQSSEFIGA

Turning to `O=C(c1ccccc1)c1ccccc1NC(=S)Nc1ccc2c(c1)OCO2`, the IC50 was found to be 435 µM in [1], 171 µM in [2], 167 µM in [3] and 179 µM in assay [4].
With `O=S(=O)(Nc1nccs1)c1ccc(NC(=S)Nc2ccc3c(c2)OCO3)cc1`, the half-maximal inhibitory concentration (IC50) was found to be 201 µM in assay [1]; 2.53 µM in [2]; 2.99 µM in assay [3]; 1.62 µM in [5]; 11.7 µM in assay [4].
For the compound `O=C(NNC(=S)Nc1ccc2c(c1)OCO2)c1ccncc1`, the concentration for half-maximal inhibition (IC50) in assay [1] worked out at 184 µM; in assay [2], 5.63 µM; in [3] it was 11.6 µM; in [4], 25.2 µM.
As for `S=C(NN=C(c1ccccc1)c1ccccc1)Nc1ccc2c(c1)OCO2`, the IC50 turned out to be 192 µM in assay [1]; 2.4 µM in assay [2]; 5.76 µM in assay [3]; 0.993 µM in [5]; 10.8 µM in [4].
Regarding `O=C1c2ccccc2C(=O)N1NC(=S)Nc1ccc2c(c1)OCO2`, the half-maximal inhibitory concentration (IC50) in assay [1] is 287 µM; in assay [2], 55.4 µM; in assay [3] it was 59.1 µM; in assay [4] it was 68.9 µM.
On to `O=S(=O)(Nc1ccccn1)c1ccc(NC(=S)Nc2ccc3c(c2)OCO3)cc1`, for which the IC50 in assay [1] amounted to 189 µM; in assay [2], 4.78 µM; in [3] it was 7.03 µM; in [5] it was 1.89 µM; in assay [4] it was 13.4 µM.
For `NS(=O)(=O)c1ccc(NC(=S)Nc2ccc3c(c2)OCO3)cc1`, the IC50 in [1] was found to be 325 µM; in assay [2] it was 86.3 µM; in assay [3], 95.7 µM; in [4] it was 103 µM.
Take `S=C(Nc1ccc2c(c1)OCO2)Nc1c2ccccc2nc2ccccc12`: the Activity is 17.25% in assay [6]; 201.7 pg/mL in [7]; 25.52% in [8]; 2.43% in [9]; 37.36% in assay [10]; 17.25% in assay [11]. Further, the Activity in [12] worked out at 4.147 pg/mL; in [13] it was 6.14%; in assay [14], 8.68%; in assay [15], 37.12%. Also, the IC50 in [1] stood at 227 µM; in [2], 1.71 µM; in assay [3] it was 2.14 µM; in assay [5], 0.493 µM; in [4], 4.63 µM.
Take `O=S(=O)(NNC(=S)Nc1ccc2c(c1)OCO2)c1ccccc1`: the IC50 stood at 207 µM in assay [1], 10 µM in [2], 11.7 µM in assay [3] and 17.6 µM in assay [4].
Turning to `Cc1c(NC(=S)Nc2ccc3c(c2)OCO3)c(=O)n(-c2ccccc2)n1C`, the Activity in assay [6] worked out at 20.43%; in assay [7], 215.8 pg/mL; in assay [8], 30.21%; in assay [9], 2.53%; in assay [10], 40.64%; in assay [11] it was 20.43%. The Activity turned out to be 3.374 pg/mL in assay [12], 7.28% in assay [13], 10.62% in assay [14] and 29.15% in assay [15]. Further, the concentration for half-maximal inhibition (IC50) in assay [1] amounted to 176 µM; in [2] it was 3.16 µM; in assay [3], 3.79 µM; in assay [5] it was 0.358 µM; in [4] it was 17 µM.
Consider `N=C(N)NS(=O)(=O)c1ccc(NC(=S)Nc2ccc3c(c2)OCO3)cc1`, for which the half-inhibitory concentration (IC50) was 364 µM in [1], 127 µM in assay [2], 132 µM in [3] and 160 µM in [4].
Take `S=C(NNc1ccccc1)Nc1ccc2c(c1)OCO2`: the IC50 was 271 µM in [1]; 1.11 µM in [2]; 1.74 µM in assay [3]; 8.26 µM in assay [5]; 7 µM in [4].
